For assay [1], the system named is Phosphorylated Ribosomal Protein S6 (RPS6) in THP-1 cells. In words: THP-1 RPS6 ELISA Assay. It is filed as cell-based, Human. The note with it: THP-1 cells, 10 nM MCP-1, read-out: PI3Kγ_THP1_RPS6_ELISA IC50. An outline of the steps:
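Cells serum-starved overnight, pre-incubated with compounds 2 h at 37° C, then stimulated with 10 nM MCP-1 for 15 min. Lysates assayed for phospho-RPS6 by ELISA read at 450 nm. IC50 from percent inhibition vs log concentration curve fit.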
For orientation: An ELISA detects its analyte on a solid surface through an enzyme-linked reagent.

For assay [2], the target named is PI3Kδ (p110δ/p85α) Recombinant Human Protein (Homo sapiens (Human), UniProt O00329). In words: PI3Kδ Scintillation Proximity Assay. It is filed as biochemical. The note with it: 2 μM ATP, 20 μM PIP2. From the text: Materials: [γ-^33P]ATP (10 mCi/mL) and Wheat Germ Agglutinin (WGA) YSi SPA Scintillation Beads was purchased from Perkin Elmer (Waltham, Mass.). Lipid kinase substrate, D-myo-Phosphatidylinositol 4,5-bisphosphate (PtdIns(4,5)P2)D (+)-sn-1,2-di-O-octanoylglyceryl, 3-O-phospho linked (PIP2), CAS 204858-53-7, was purchased from Echelon Biosciences (Salt Lake City, Utah). PI3Kδ (p110δ/p85α) Recombinant Human Protein was purchased from Eurofins (St Charles, Mo.). ATP, MgCl2, DTT, EDTA, MOPS and CHAPS were purchased from Sigma Aldrich (St. Louis, Mo.).
The kinase reaction was conducted in polystyrene 384-well Greiner Bio-one white plate from Thermo Fisher Scientific in a final volume of 25 μL. Inhibitors were first diluted serially in DMSO and added to the plate wells before the addition of other reaction components. The final concentration of DMSO in the assay was 2%. The PI3Kδ assay was carried out at room temperature in 20 mM MOPS, pH 6.7, 10 mM MgCl2, 5 mM DTT and CHAPS 0.03%. Reactions were initiated by the addition of ATP, the final reaction mixture consisted of 20 μM PIP2, 2 μM ATP, 0.5 μCi [γ-^33P] ATP, 3.4 nM PI3Kδ. Reactions were incubated for 120 min and terminated by the addition of 40 μL SPA beads suspended in quench buffer: 163 mM potassium phosphate pH 7.8, 20% glycerol, 25 mM EDTA. The final concentration of SPA beads is 1.0 mg/mL. After the plate sealing, plates were shaken overnight at room temperature and centrifuged at 1500 rpm for 10 min, the radioactivity of the product was determined by scintillation counting on Topcount (PerkinElmer). IC50 determination was performed by fitting the curve of percent of the solvent control activity versus the log of the inhibitor concentration using the GraphPad Prism 6.0 software.
For orientation: In a scintillation proximity assay essentially only radioactivity close to the scintillant gives light.

Among the data in US11046658B2, “Aminopyrazine derivatives as PI3K-γ inhibitors” (Incyte Corporation, priority 2018, dated 2021) are IC50 values, retold here.

Where a name gives a salt, the structure may show the parent alone. Read-outs that look alike come from different tables or passages of the source.

The term IC50 denotes the concentration at which inhibition is half-maximal.

Chain of PI3Kδ (p110δ/p85α) Recombinant Human Protein (O00329 whole entry): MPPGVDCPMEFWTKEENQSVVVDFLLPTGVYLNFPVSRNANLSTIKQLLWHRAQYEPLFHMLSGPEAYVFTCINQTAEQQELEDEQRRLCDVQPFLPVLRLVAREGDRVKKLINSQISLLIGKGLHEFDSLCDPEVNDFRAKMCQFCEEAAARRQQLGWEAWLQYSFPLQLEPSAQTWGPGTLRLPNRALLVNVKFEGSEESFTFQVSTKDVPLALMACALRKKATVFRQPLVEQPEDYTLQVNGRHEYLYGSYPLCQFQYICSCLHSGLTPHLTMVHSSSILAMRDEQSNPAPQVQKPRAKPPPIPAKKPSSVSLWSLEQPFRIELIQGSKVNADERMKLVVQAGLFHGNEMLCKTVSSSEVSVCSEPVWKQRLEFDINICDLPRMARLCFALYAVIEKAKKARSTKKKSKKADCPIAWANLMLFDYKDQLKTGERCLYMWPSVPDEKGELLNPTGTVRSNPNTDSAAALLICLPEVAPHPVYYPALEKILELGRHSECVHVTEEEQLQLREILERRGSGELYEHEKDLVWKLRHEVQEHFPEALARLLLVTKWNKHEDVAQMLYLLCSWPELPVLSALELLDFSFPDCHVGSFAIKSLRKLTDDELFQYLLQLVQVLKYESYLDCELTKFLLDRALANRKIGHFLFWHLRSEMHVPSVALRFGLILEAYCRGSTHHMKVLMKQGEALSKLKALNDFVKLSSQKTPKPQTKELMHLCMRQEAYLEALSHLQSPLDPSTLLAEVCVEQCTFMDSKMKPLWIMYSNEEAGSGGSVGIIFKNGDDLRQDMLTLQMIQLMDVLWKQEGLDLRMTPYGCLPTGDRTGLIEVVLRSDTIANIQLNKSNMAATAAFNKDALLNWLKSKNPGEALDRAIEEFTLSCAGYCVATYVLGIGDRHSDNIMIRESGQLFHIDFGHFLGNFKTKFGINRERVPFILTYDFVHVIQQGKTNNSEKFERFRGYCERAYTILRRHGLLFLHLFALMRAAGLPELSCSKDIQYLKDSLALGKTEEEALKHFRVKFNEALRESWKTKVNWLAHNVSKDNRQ
Chain of PI3Kδ (p110δ/p85α) Recombinant Human Protein (P27986 whole entry partner): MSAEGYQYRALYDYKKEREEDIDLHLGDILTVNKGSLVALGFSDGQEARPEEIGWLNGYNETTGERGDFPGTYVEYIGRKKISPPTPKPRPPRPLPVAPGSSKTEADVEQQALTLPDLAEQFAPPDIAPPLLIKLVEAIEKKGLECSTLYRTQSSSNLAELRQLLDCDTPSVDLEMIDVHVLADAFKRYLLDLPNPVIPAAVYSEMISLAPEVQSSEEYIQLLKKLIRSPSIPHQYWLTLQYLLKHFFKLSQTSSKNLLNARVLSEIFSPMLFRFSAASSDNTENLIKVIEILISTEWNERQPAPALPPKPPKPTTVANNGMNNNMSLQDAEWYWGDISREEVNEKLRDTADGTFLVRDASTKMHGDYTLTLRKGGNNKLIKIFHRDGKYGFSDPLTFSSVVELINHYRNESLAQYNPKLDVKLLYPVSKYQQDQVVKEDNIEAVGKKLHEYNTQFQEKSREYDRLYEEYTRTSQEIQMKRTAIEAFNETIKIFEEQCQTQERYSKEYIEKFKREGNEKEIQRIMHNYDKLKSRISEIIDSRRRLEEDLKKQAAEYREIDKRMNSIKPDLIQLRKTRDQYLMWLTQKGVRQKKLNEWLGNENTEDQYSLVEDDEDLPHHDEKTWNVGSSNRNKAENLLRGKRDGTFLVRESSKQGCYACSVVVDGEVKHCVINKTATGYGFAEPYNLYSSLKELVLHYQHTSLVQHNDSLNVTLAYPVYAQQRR

With `CNC(=O)C(O)(c1ccc(C)c(-c2cnc(N)c(-c3cnn(C)c3)n2)c1)C(F)(F)F` (centres unmarked) [Example 96, 2-(3-(5-Amino-6-(1-methyl-1H-pyrazol-4-yl)pyrazin-2-yl)-4-methylphenyl)-3,3,3-trifluoro-2-hydroxy-N-methylpropanamide], the IC50 in assay [1] (Homo sapiens, Table A3) is below 100 nM; in assay [2] (Table A3) it was below 500 nM.

`Cc1ccc(C(O)(C(N)=O)C(F)(F)F)cc1-c1cnc(N)c(-c2ccc(C3CC3)cc2)n1` (centres unmarked) [Example 92, 2-(3-(5-amino-6-(4-cyclopropylphenyl)pyrazin-2-yl)-4-methylphenyl)-3,3,3-trifluoro-2-hydroxypropanamide trifluoroacetate]: the IC50 is below 500 nM in assay [1] (Homo sapiens, Table A3) and below 500 nM in assay [2] (Table A3).

Turning to `Cc1ccc(C)c(N2CCN(c3nc(-c4cc(C(O)(C(N)=O)C(F)(F)F)ccc4C)cnc3N)CC2)c1` (centres unmarked) [Example 119, 2-(3-(5-amino-6-(4-(2,5-dimethylphenyl)piperazin-1-yl)pyrazin-2-yl)-4-methylphenyl)-3,3,3-trifluoro-2-hydroxypropanamide trifluoroacetate], the IC50 in assay [1] (Homo sapiens, Table A4) is above 1000 nM; in assay [2] (Table A4) it was below 500 nM. Regarding `Cc1ccc(C(O)(C(N)=O)C(F)(F)F)cc1-c1cnc(N)c(-c2cncnc2)n1` (centres unmarked) [Example 81, 2-(3-(5-amino-6-(pyrimidin-5-yl)pyrazin-2-yl)-4-methylphenyl)-3,3,3-trifluoro-2-hydroxypropanamide trifluoroacetate], the IC50 is below 500 nM in assay [1] (Homo sapiens, Table A3) and below 500 nM in assay [2] (Table A3). For `Cc1ccc(C(O)(C(N)=O)C(F)(F)F)cc1-c1cnc(N)c(C(=O)N2CCc3cccnc32)n1` (centres unmarked) [Example 28, 2-(3-(5-amino-6-(2,3-dihydro-1H-pyrrolo[2,3-b]pyridine-1-carbonyl)pyrazin-2-yl)-4-methylphenyl)-3,3,3-trifluoro-2-hydroxypropanamide], the IC50 was below 100 nM in assay [1] (Homo sapiens, Table A1) and below 500 nM in assay [2] (Table A1). For the compound `Cc1ccc(C(O)(C(N)=O)C(F)(F)F)cc1-c1cnc(N)c(N2CCN(c3ccccc3C)CC2)n1` (centres unmarked) [Example 118, 2-(3-(5-amino-6-(4-o-tolylpiperazin-1-yl)pyrazin-2-yl)-4-methylphenyl)-3,3,3-trifluoro-2-hydroxypropanamide trifluoroacetate], the IC50 in assay [1] (Homo sapiens, Table A4) was below 1000 nM; in assay [2] (Table A4), below 500 nM. On to `Cc1ccc(C(O)(C(N)=O)C(F)(F)F)cc1-c1cnc(N)c(C(F)(F)F)n1` (centres unmarked) [Example 46, 2-(3-(5-Amino-6-(trifluoromethyl)pyrazin-2-yl)-4-methylphenyl)-3,3,3-trifluoro-2-hydroxypropanamide trifluoroacetate], for which the IC50 in assay [2] (Table A2) is below 500 nM. Turning to `C/C=C\c1nc(-c2cc(C(O)(C(N)=O)C(F)(F)F)ccc2C)cnc1N` (centres unmarked) [Example 44, (Z)-2-(3-(5-amino-6-(prop-1-en-1-yl)pyrazin-2-yl)-4-methylphenyl)-3,3,3-trifluoro-2-hydroxypropanamide], the IC50 in assay [2] (Table A2) was below 500 nM. Regarding `Cc1ccc(C(O)(C(N)=O)C(F)(F)F)cc1-c1cnc(N)c(C#CC2(C)CCOCC2)n1` (centres unmarked) [Example 64, 2-(3-(5-amino-6-((4-methyltetrahydro-2H-pyran-4-yl)ethynyl)pyrazin-2-yl)-4-methylphenyl)-3,3,3-trifluoro-2-hydroxypropanamide], the IC50 in assay [1] (Homo sapiens, Table A2) is below 100 nM. On the same count and under the same terms, the same measure for `Cc1ccc(C(O)(C(N)=O)C(F)(F)F)cc1-c1cnc(N)c(C#CC2CC2)n1` (centres unmarked) [Example 48, 2-(3-(5-amino-6-(cyclopropylethynyl)pyrazin-2-yl)-4-methylphenyl)-3,3,3-trifluoro-2-hydroxypropanamide]: above 1000 nM. Consider `Cc1ccc(C(O)(C(N)=O)C(F)(F)F)cc1-c1cnc(N)c(-c2cnc(C3CC3)s2)n1` (centres unmarked) [Example 84, 2-(3-(5-amino-6-(2-cyclopropylthiazol-5-yl)pyrazin-2-yl)-4-methylphenyl)-3,3,3-trifluoro-2-hydroxypropanamide trifluoroacetate], for which the half-inhibitory concentration (IC50) in assay [1] (Homo sapiens, Table A3) was below 500 nM. On to `Cc1ccc(C(O)(CNC=O)C(F)(F)F)cc1-c1cnc(N)c(-c2cnc(C3CC3)s2)n1` (centres unmarked) [Example 102, N-(2-(3-(5-amino-6-(2-cyclopropylthiazol-5-yl)pyrazin-2-yl)-4-methylphenyl)-3,3,3-trifluoro-2-hydroxypropyl)formamide trifluoroacetate], for which the IC50 in assay [1] (Homo sapiens, Table A3) was below 100 nM.

With `Cc1ccc(C(O)(C(N)=O)C(F)(F)F)cc1-c1cnc(N)c(C(=O)NCCC#N)n1` (centres unmarked) [Example 14, 3-amino-6-(5-(3-amino-1,1,1-trifluoro-2-hydroxy-3-oxopropan-2-yl)-2-methylphenyl)-N-(2-cyanoethyl)pyrazine-2-carboxamide trifluoroacetate], the IC50 in assay [1] (Homo sapiens, Table A1) is below 100 nM. On to `Cc1ccc(C(O)(C(N)=O)C(F)(F)F)cc1-c1cnc(N)c(C(=O)NCC(O)C(F)(F)F)n1` (single isomer, unassigned) [Example 43B, 3-amino-6-(5-(3-amino-1,1,1-trifluoro-2-hydroxy-3-oxopropan-2-yl)-2-methylphenyl)-N-(3,3,3-trifluoro-2-hydroxypropyl)pyrazine-2-carboxamide], for which the IC50 in assay [1] (Table A1) is below 100 nM. In the case of `Cc1ccc(C(O)(C(N)=O)C(F)(F)F)cc1-c1cnc(N)c(C(=O)NC(C)C)n1` (centres unmarked) [Example 5, 3-Amino-6-(5-(3-amino-1,1,1-trifluoro-2-hydroxy-3-oxopropan-2-yl)-2-methylphenyl)-N-isopropylpyrazine-2-carboxamide trifluoroacetate], the IC50 in assay [1] (Homo sapiens, Table A1) is below 100 nM. Consider `Cc1ccc(C(O)(C(N)=O)C(F)(F)F)cc1-c1cnc(N)c(C#Cc2cncn2C)n1` (centres unmarked) [Example 53, 2-(3-(5-amino-6-((1-methyl-1H-imidazol-5-yl)ethynyl)pyrazin-2-yl)-4-methylphenyl)-3,3,3-trifluoro-2-hydroxypropanamide], for which, in assay [1] (Homo sapiens, Table A2), the IC50 was below 500 nM. With `Cc1ccc(C(O)(C(N)=O)C(F)(F)F)cc1-c1cnc(N)c(C(=O)NC23CCC(C#N)(C2)C3)n1` (centres unmarked) [Example 24, 3-amino-6-(5-(3-amino-1,1,1-trifluoro-2-hydroxy-3-oxopropan-2-yl)-2-methylphenyl)-N-(4-cyanobicyclo[2.1.1]hexan-1-yl)pyrazine-2-carboxamide trifluoroacetate], the IC50 in assay [1] (Homo sapiens, Table A1) is below 100 nM. On the same count and under the same terms, the same measure for `Cc1ccc(C(O)(C(N)=O)C(F)(F)F)cc1-c1cnc(N)c(C(=O)NC23CC(C#N)(C2)C3)n1` (centres unmarked) [Example 23, 3-amino-6-(5-(3-amino-1,1,1-trifluoro-2-hydroxy-3-oxopropan-2-yl)-2-methylphenyl)-N-(3-cyanobicyclo[1.1.1]pentan-1-yl)pyrazine-2-carboxamide trifluoroacetate]: below 100 nM.

As for `Cc1ccc(C(O)(C(N)=O)C(F)(F)F)cc1-c1cnc(N)c(N2CCN(c3ccc(C#N)cc3)CC2)n1` (centres unmarked) [Example 123, 2-(3-(5-amino-6-(4-(4-cyanophenyl)piperazin-1-yl)pyrazin-2-yl)-4-methylphenyl)-3,3,3-trifluoro-2-hydroxypropanamide trifluoroacetate], the IC50 in assay [1] (Homo sapiens, Table A4) was below 500 nM. For `Cc1ccc(C(O)(C(N)=O)C(F)(F)F)cc1-c1cnc(N)c(C(=O)N[C@@H](C)CO)n1` (stereo partly drawn) [Example 12, 3-amino-6-(5-(3-amino-1,1,1-trifluoro-2-hydroxy-3-oxopropan-2-yl)-2-methylphenyl)-N-((S)-1-hydroxypropan-2-yl)pyrazine-2-carboxamide], in assay [1] (Homo sapiens, Table A1), the IC50 is below 100 nM.
